Measurements from the NIST ThermoML archive (doi:10.1021/je800224k).

Details: Liquid

CCCCCCn1cc[n+](C)c1.F[P-](F)(F)(F)(F)F [1-hexyl-3-methylimidazolium hexafluorophosphate]
Details	mass density [kg/m3]
293.15 K, 101.33 kPa, Vibrating tube method	1297
312.9 K, 10000 kPa, Bellows volumetry	1287
312.9 K, 20000 kPa, Bellows volumetry	1292
312.9 K, 30000 kPa, Bellows volumetry	1298
312.9 K, 40000 kPa, Bellows volumetry	1303
312.9 K, 50000 kPa, Bellows volumetry	1308
312.9 K, 60000 kPa, Bellows volumetry	1313
312.9 K, 70000 kPa, Bellows volumetry	1318
312.9 K, 80000 kPa, Bellows volumetry	1322
312.9 K, 90000 kPa, Bellows volumetry	1327
312.9 K, 100000 kPa, Bellows volumetry	1331
312.9 K, 110000 kPa, Bellows volumetry	1335
312.9 K, 120000 kPa, Bellows volumetry	1339
312.9 K, 130000 kPa, Bellows volumetry	1343
312.9 K, 140000 kPa, Bellows volumetry	1347
312.9 K, 150000 kPa, Bellows volumetry	1351
312.9 K, 160000 kPa, Bellows volumetry	1355
312.9 K, 170000 kPa, Bellows volumetry	1358
312.9 K, 180000 kPa, Bellows volumetry	1362
312.9 K, 190000 kPa, Bellows volumetry	1366
312.9 K, 200000 kPa, Bellows volumetry	1369
313.15 K, 101.33 kPa, Vibrating tube method	1280.7
332.6 K, 10000 kPa, Bellows volumetry	1271
332.6 K, 20000 kPa, Bellows volumetry	1277
332.6 K, 30000 kPa, Bellows volumetry	1283
332.6 K, 40000 kPa, Bellows volumetry	1289
332.6 K, 50000 kPa, Bellows volumetry	1294
332.6 K, 60000 kPa, Bellows volumetry	1299
332.6 K, 70000 kPa, Bellows volumetry	1304
332.6 K, 80000 kPa, Bellows volumetry	1309
332.6 K, 90000 kPa, Bellows volumetry	1313
332.6 K, 100000 kPa, Bellows volumetry	1318
332.6 K, 110000 kPa, Bellows volumetry	1322
332.6 K, 120000 kPa, Bellows volumetry	1326
332.6 K, 130000 kPa, Bellows volumetry	1330
332.6 K, 140000 kPa, Bellows volumetry	1334
332.6 K, 150000 kPa, Bellows volumetry	1338
332.6 K, 160000 kPa, Bellows volumetry	1342
332.6 K, 170000 kPa, Bellows volumetry	1346
332.6 K, 180000 kPa, Bellows volumetry	1350
332.6 K, 190000 kPa, Bellows volumetry	1353
332.6 K, 200000 kPa, Bellows volumetry	1357
333.15 K, 101.33 kPa, Vibrating tube method	1265.1
352.7 K, 10000 kPa, Bellows volumetry	1256
352.7 K, 20000 kPa, Bellows volumetry	1262
352.7 K, 30000 kPa, Bellows volumetry	1268
352.7 K, 40000 kPa, Bellows volumetry	1274
352.7 K, 50000 kPa, Bellows volumetry	1280
352.7 K, 60000 kPa, Bellows volumetry	1285
352.7 K, 70000 kPa, Bellows volumetry	1290
352.7 K, 80000 kPa, Bellows volumetry	1295
352.7 K, 90000 kPa, Bellows volumetry	1300
352.7 K, 100000 kPa, Bellows volumetry	1305
352.7 K, 110000 kPa, Bellows volumetry	1309
352.7 K, 120000 kPa, Bellows volumetry	1314
352.7 K, 130000 kPa, Bellows volumetry	1318
352.7 K, 140000 kPa, Bellows volumetry	1322
352.7 K, 150000 kPa, Bellows volumetry	1326
352.7 K, 160000 kPa, Bellows volumetry	1330
352.7 K, 170000 kPa, Bellows volumetry	1334
352.7 K, 180000 kPa, Bellows volumetry	1338
352.7 K, 190000 kPa, Bellows volumetry	1342
352.7 K, 200000 kPa, Bellows volumetry	1345
353.15 K, 101.33 kPa, Vibrating tube method	1249.8
372.9 K, 10000 kPa, Bellows volumetry	1241
372.9 K, 20000 kPa, Bellows volumetry	1248
372.9 K, 30000 kPa, Bellows volumetry	1254
372.9 K, 40000 kPa, Bellows volumetry	1260
372.9 K, 50000 kPa, Bellows volumetry	1266
372.9 K, 60000 kPa, Bellows volumetry	1271
372.9 K, 70000 kPa, Bellows volumetry	1277
372.9 K, 80000 kPa, Bellows volumetry	1282
372.9 K, 90000 kPa, Bellows volumetry	1287
372.9 K, 100000 kPa, Bellows volumetry	1292
372.9 K, 110000 kPa, Bellows volumetry	1296
372.9 K, 120000 kPa, Bellows volumetry	1301
372.9 K, 130000 kPa, Bellows volumetry	1306
372.9 K, 140000 kPa, Bellows volumetry	1310
372.9 K, 150000 kPa, Bellows volumetry	1314
372.9 K, 160000 kPa, Bellows volumetry	1318
372.9 K, 170000 kPa, Bellows volumetry	1322
372.9 K, 180000 kPa, Bellows volumetry	1326
372.9 K, 190000 kPa, Bellows volumetry	1330
372.9 K, 200000 kPa, Bellows volumetry	1334
393 K, 10000 kPa, Bellows volumetry	1226
393 K, 20000 kPa, Bellows volumetry	1233
393 K, 30000 kPa, Bellows volumetry	1240
393 K, 40000 kPa, Bellows volumetry	1246
393 K, 50000 kPa, Bellows volumetry	1252
393 K, 60000 kPa, Bellows volumetry	1258
393 K, 70000 kPa, Bellows volumetry	1264
393 K, 80000 kPa, Bellows volumetry	1269
393 K, 90000 kPa, Bellows volumetry	1274
393 K, 100000 kPa, Bellows volumetry	1279
393 K, 110000 kPa, Bellows volumetry	1284
393 K, 120000 kPa, Bellows volumetry	1289
393 K, 130000 kPa, Bellows volumetry	1293
393 K, 140000 kPa, Bellows volumetry	1298
393 K, 150000 kPa, Bellows volumetry	1302
393 K, 160000 kPa, Bellows volumetry	1306
393 K, 170000 kPa, Bellows volumetry	1310
393 K, 180000 kPa, Bellows volumetry	1314
393 K, 190000 kPa, Bellows volumetry	1318
393 K, 200000 kPa, Bellows volumetry	1322
412.9 K, 10000 kPa, Bellows volumetry	1211
412.9 K, 20000 kPa, Bellows volumetry	1219
412.9 K, 30000 kPa, Bellows volumetry	1226
412.9 K, 40000 kPa, Bellows volumetry	1232
412.9 K, 50000 kPa, Bellows volumetry	1239
412.9 K, 60000 kPa, Bellows volumetry	1245
412.9 K, 70000 kPa, Bellows volumetry	1251
412.9 K, 80000 kPa, Bellows volumetry	1256
412.9 K, 90000 kPa, Bellows volumetry	1262
412.9 K, 100000 kPa, Bellows volumetry	1267
412.9 K, 110000 kPa, Bellows volumetry	1272
412.9 K, 120000 kPa, Bellows volumetry	1277
412.9 K, 130000 kPa, Bellows volumetry	1282
412.9 K, 140000 kPa, Bellows volumetry	1286
412.9 K, 150000 kPa, Bellows volumetry	1291
412.9 K, 160000 kPa, Bellows volumetry	1295
412.9 K, 170000 kPa, Bellows volumetry	1299
412.9 K, 180000 kPa, Bellows volumetry	1303
412.9 K, 190000 kPa, Bellows volumetry	1307
412.9 K, 200000 kPa, Bellows volumetry	1311
432.8 K, 10000 kPa, Bellows volumetry	1197
432.8 K, 20000 kPa, Bellows volumetry	1205
432.8 K, 30000 kPa, Bellows volumetry	1212
432.8 K, 40000 kPa, Bellows volumetry	1219
432.8 K, 50000 kPa, Bellows volumetry	1226
432.8 K, 60000 kPa, Bellows volumetry	1232
432.8 K, 70000 kPa, Bellows volumetry	1238
432.8 K, 80000 kPa, Bellows volumetry	1244
432.8 K, 90000 kPa, Bellows volumetry	1250
432.8 K, 100000 kPa, Bellows volumetry	1255
432.8 K, 110000 kPa, Bellows volumetry	1260
432.8 K, 120000 kPa, Bellows volumetry	1265
432.8 K, 130000 kPa, Bellows volumetry	1270
432.8 K, 140000 kPa, Bellows volumetry	1275
432.8 K, 150000 kPa, Bellows volumetry	1279
432.8 K, 160000 kPa, Bellows volumetry	1284
432.8 K, 170000 kPa, Bellows volumetry	1288
432.8 K, 180000 kPa, Bellows volumetry	1292
432.8 K, 190000 kPa, Bellows volumetry	1297
432.8 K, 200000 kPa, Bellows volumetry	1301
452.5 K, 10000 kPa, Bellows volumetry	1183
452.5 K, 20000 kPa, Bellows volumetry	1191
452.5 K, 30000 kPa, Bellows volumetry	1199
452.5 K, 40000 kPa, Bellows volumetry	1206
452.5 K, 50000 kPa, Bellows volumetry	1213
452.5 K, 60000 kPa, Bellows volumetry	1219
452.5 K, 70000 kPa, Bellows volumetry	1226
452.5 K, 80000 kPa, Bellows volumetry	1232
452.5 K, 90000 kPa, Bellows volumetry	1237
452.5 K, 100000 kPa, Bellows volumetry	1243
452.5 K, 110000 kPa, Bellows volumetry	1248
452.5 K, 120000 kPa, Bellows volumetry	1254
452.5 K, 130000 kPa, Bellows volumetry	1259
452.5 K, 140000 kPa, Bellows volumetry	1263
452.5 K, 150000 kPa, Bellows volumetry	1268
452.5 K, 160000 kPa, Bellows volumetry	1273
452.5 K, 170000 kPa, Bellows volumetry	1277
452.5 K, 180000 kPa, Bellows volumetry	1282
452.5 K, 190000 kPa, Bellows volumetry	1286
452.5 K, 200000 kPa, Bellows volumetry	1290
472.3 K, 10000 kPa, Bellows volumetry	1169
472.3 K, 20000 kPa, Bellows volumetry	1177
472.3 K, 30000 kPa, Bellows volumetry	1185
472.3 K, 40000 kPa, Bellows volumetry	1193
472.3 K, 50000 kPa, Bellows volumetry	1200
472.3 K, 60000 kPa, Bellows volumetry	1207
472.3 K, 70000 kPa, Bellows volumetry	1213
472.3 K, 80000 kPa, Bellows volumetry	1220
472.3 K, 90000 kPa, Bellows volumetry	1226
472.3 K, 100000 kPa, Bellows volumetry	1231
472.3 K, 110000 kPa, Bellows volumetry	1237
472.3 K, 120000 kPa, Bellows volumetry	1242
472.3 K, 130000 kPa, Bellows volumetry	1247
472.3 K, 140000 kPa, Bellows volumetry	1253
472.3 K, 150000 kPa, Bellows volumetry	1257
472.3 K, 160000 kPa, Bellows volumetry	1262
472.3 K, 170000 kPa, Bellows volumetry	1267
472.3 K, 180000 kPa, Bellows volumetry	1271
472.3 K, 190000 kPa, Bellows volumetry	1276
472.3 K, 200000 kPa, Bellows volumetry	1280
